Laboratory results as given in patent US20170247326A1, “Substituted Pyrrolidine Carboxamide Compounds” (EPIZYME, INC., priority 2014, published 2017).

Target: T1, SMYD2 (Homo sapiens, UniProt Q9NRG4)
T1 construct: Full length SMYD2 (NP_064582.2) was cloned; His6 (N, cleaved yes); FLAG (N); made in house; host or cells: Sf9 insect cells
Assay: SMYD2 biochemical assay (3H-SAM, biotinylated peptide substrate, Flashplate)
Details: Table 1; average of n = 1 to n = 50; read-out: SMYD2 Biochem IC50
From the text: S-adenosylmethionine (SAM), S-adenosylhomocysteine (SAH), bicine, Tween20, dimethylsulfoxide (DMSO), bovine skin gelatin (BSG), and Tris(2-carboxyethyl)phosphine hydrochloride (TCEP) were purchased from Sigma-Aldrich at the highest level of purity possible. ^3H-SAM was purchase from American Radiolabeled Chemicals with a specific activity of 80 Ci/mmol. 384-well streptavidin Flashplates were purchased from PerkinElmer.
Peptide was synthesized with a N-terminal linker-affinity tag motif and a C-terminal amide cap by 21st Century Biochemicals. The peptide was high high-performance liquid chromatography (HPLC) purified to greater than 95% purity and confirmed by liquid chromatography mass spectrometry (LC-MS). The sequence was […](K-Biot)-amide. (SEQ ID NO: 3)
Full length SMYD2 (NP_064582.2) was cloned into a pFastbac-Htb-lic vector with an N-terminal His6 tag and FLAG tag, preceded by a TEV protease cleavage site. The protein was expressed in Sf9 insect cells. Cells were resuspended in lysis buffer (25 mM HEPES-NaOH, pH 7.5, 200 mM NaCl, 5% glycerol, and 5 mM […] and lysed by sonication. The protein was purified by Ni-NTA (Qiagen), followed by TEV cleavage to remove the His6 tag, subtractive Ni-NTA (Qiagen), and gel filtration chromatography using an S200 column (GE Healthcare). Purified protein was stored in 20 mM Tris-HCl, pH 8.0, 100 mM NaCl, and 1 mM TCEP.
General Procedure for SMYD2 Enzyme Assays on Peptide Substrates
The assays were all performed in a buffer consisting of 20 mM Bicine (pH=7.6), 1 mM TCEP, 0.005% Bovine Skin Gelatin, and 0.002% Tween20, prepared on the day of use. Compounds in 100% DMSO (1 ul) were spotted into a polypropylene 384-well V-bottom plates (Greiner) using a Platemate Plus outfitted with a 384-channel head (Thermo Scientific). DMSO (1 ul) was added to Columns 11, 12, 23, 24, rows A-H for the maximum signal control and 1 ul of SAH, a known product and inhibitor of SMYD2, was added to columns 11, 12, 23, 24, rows I-P for the minimum signal control. A cocktail (40 ul) containing the SMYD2 enzyme was added by Multidrop Combi (Thermo-Fisher). The compounds were allowed to incubate with SMYD2 for 30 min at room temperature, then a cocktail (10 ul) containing ^3H-SAM and peptide was added to initiate the reaction (final volume=51 ul). The final concentrations of the components were as follows: SMYD2 was 1.5 nM, ^3H-SAM was 10 nM, and peptide was 60 nM, SAH in the minimum signal control wells was 1000 uM, and the DMSO concentration was 2%. The assays were stopped by the addition of non-radioactive SAM (10 ul) to a final concentration of 600 uM, which dilutes the ^3H-SAM to a level where its incorporation into the peptide substrate is no longer detectable. 50 ul of the reaction in the 384-well polypropylene plate was then transferred to a 384-well Flashplate and the biotinylated peptides were allowed to bind to the streptavidin surface for at least 1 hour before being washed three times with 0.1% Tween20 in a Biotek ELx405 plate washer. The plates were then read in a PerkinElmer TopCount plate reader to measure the quantity of ^3H-labeled peptide bound to the Flashplate surface, measured as disintegrations per minute (dpm) or alternatively, referred to as counts per minute (cpm).
Where dpm=disintegrations per minute, cmpd=signal in assay well, and min and max are the respective minimum and maximum signal controls.
Where top and bottom are the normally allowed to float, but may be fixed at 100 or 0 respectively in a 3-parameter fit. The Hill Coefficient normally allowed to float but may also be fixed at 1 in a 3-parameter fit. I is the compound concentration.
SMYD2 biochemical assay data for representative Compounds of the Disclosure are presented in Tables 1, 3, and 4 in the column titled “SMYD2 Bicohem IC50 (μM).”

T1 sequence (Q9NRG4 whole entry): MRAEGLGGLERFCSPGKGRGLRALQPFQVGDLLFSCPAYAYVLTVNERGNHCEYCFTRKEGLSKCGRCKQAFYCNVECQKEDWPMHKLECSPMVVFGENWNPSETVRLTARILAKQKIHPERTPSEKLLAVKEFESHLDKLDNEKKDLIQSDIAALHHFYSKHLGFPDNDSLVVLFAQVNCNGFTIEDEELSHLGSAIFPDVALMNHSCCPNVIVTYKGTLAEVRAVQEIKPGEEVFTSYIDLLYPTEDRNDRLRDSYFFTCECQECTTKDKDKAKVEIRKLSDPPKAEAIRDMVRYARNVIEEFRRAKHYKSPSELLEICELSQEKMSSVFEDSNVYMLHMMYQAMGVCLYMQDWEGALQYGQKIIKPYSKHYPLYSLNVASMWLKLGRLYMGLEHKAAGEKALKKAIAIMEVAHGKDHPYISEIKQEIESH

How did the IC50 turn out when C[C@H]1CN(C2CC2)C[C@H]1NC(=O)c1cn(C2CC2)nn1 (racemic) [compound 19, (±)-cis-1-cyclopropyl-N-(1-cyclopropyl-4-methylpyrrolidin-3-yl)-1H-1,2,3-triazole-4-carboxamide] was run?
Its IC50 is 1.4 µM.

Which IC50 does the source give for C[C@H]1CN(C2CC2)C[C@@H]1NC(=O)c1ccc2[nH]c(=O)oc2c1 (racemic) [compound 13, (±)-trans-N-(1-cyclopropyl-4-methylpyrrolidin-3-yl)-2-oxo-2,3-dihydrobenzo[d]oxazole-6-carboxamide] here?
The IC50 was greater than 50 µM.

With C[C@@H]1CN(C2CC2)C[C@H]1NC(=O)c1cc(O)nn1C (racemic) [compound 15, (±)-trans-H-(1-cyclopropyl-4-methylpyrrolidin-3-yl)-3-hydroxy-1-methyl-1H-pyrazole-5-carboxamide] as the compound, how does the IC50 read?
The IC50 was greater than 50 µM.

Same assay, conditions: Table 3; average of n = 1 to n = 50; read-out: SMYD2 Biochem IC50

How did the IC50 turn out when CC(C)N1C[C@H](C)[C@H](NC(=O)c2nccc(C3CC3)n2)C1 (racemic) [compound 60, (±)-cis-4-cyclopropyl-N-[4-methyl-1-(propan-2-yl)pyrrolidin-3-yl]pyrimidine-2-carboxamide] was run?
Its IC50 is greater than 50 µM.

CC(C)N1C[C@H](C)[C@H](NC(=O)c2ncc(C3CC3)s2)C1 (racemic) [compound 69, (±)-cis-5-cyclopropyl-N-[4-methyl-1-(propan-2-yl)pyrrolidin-3-yl]-1,3-thiazole-2-carboxamide] was tested. Which IC50 did it give?
The IC50 was 3.3 µM.

For CC(C)N1C[C@H](C)[C@H](NC(=O)c2nnc(C3CC3)o2)C1 (racemic) [compound 53, (±)-cis-5-cyclopropyl-N-[4-methyl-1-(propan-2-yl)pyrrolidin-3-yl]-1,3,4-oxadiazole-2-carboxamide], which IC50 is on record?
The IC50 was 4.64 µM.

With CC(C)N1C[C@@H](C)[C@H](NC(=O)c2cc(C3CC3)[nH]n2)C1 (racemic) [compound 62, (±)-trans-5-cyclopropyl-N-[4-methyl-1-(propan-2-yl)pyrrolidin-3-yl]-1H-pyrazole-3-carboxamide] as the compound, how does the IC50 read?
Its IC50 is greater than 50 µM.

With CC(C)N1C[C@H](C)[C@H](NC(=O)c2cnnc(C3CC3)c2)C1 (racemic) [compound 64, (±)-cis-6-cyclopropyl-N-[4-methyl-1-(propan-2-yl)pyrrolidin-3-yl]pyridazine-4-carboxamide] as the compound, how does the IC50 read?
Its IC50 is greater than 50 µM.

How did the IC50 turn out when CC(C)N1C[C@@H](C)[C@@H](NC(=O)c2cnn(C(C)C)c2)C1 (racemic) [compound 46, (±)-cis-N-[4-methyl-1-(propan-2-yl)pyrrolidin-3-yl]-1-(propan-2-yl)-1H-pyrazole-4-carboxamide] was run?
Its IC50 is greater than 50 µM.

With CC(C)N1C[C@@H](C)[C@H](NC(=O)c2cnnc(C3CC3)c2)C1 (racemic) [compound 65, (±)-trans-6-cyclopropyl-N-[4-methyl-1-(propan-2-yl)pyrrolidin-3-yl]pyridazine-4-carboxamide] as the compound, how does the IC50 read?
The IC50 was greater than 50 µM.

CC(C)N1C[C@H](C)[C@H](NC(=O)c2cncc(C3CC3)c2)C1 (racemic) [compound 90, (±)-cis-5-cyclopropyl-N-[4-methyl-1-(propan-2-yl)pyrrolidin-3-yl]pyridine-3-carboxamide] was tested. Which IC50 did it give?
The IC50 was greater than 50 µM.

CC(C)N1C[C@@H](C)[C@H](NC(=O)c2ccc(C3CC3)c(=O)[nH]2)C1 (racemic) [compound 57, (±)-trans-5-cyclopropyl-N-[4-methyl-1-(propan-2-yl)pyrrolidin-3-yl]-6-oxo-1,6-dihydropyridine-2-carboxamide] was tested. Which IC50 did it give?
The IC50 was greater than 50 µM.

Which IC50 does the source give for CC(C)N1C[C@H](C)[C@H](NC(=O)c2ccc3c(c2)OCC(=O)N3)C1 (racemic) [compound 29, (±)-cis-N-[4-methyl-1-(propan-2-yl)pyrrolidin-3-yl]-3-oxo-3,4-dihydro-2H-1,4-benzoxazine-7-carboxamide] here?
Its IC50 is greater than 50 µM.

With CC(C)N1C[C@H](C)[C@H](NC(=O)c2cc(C3CC3)sn2)C1 (racemic) [compound 93, (±)-cis-5-cyclopropyl-N-[4-methyl-1-(propan-2-yl)pyrrolidin-3-yl]-1,2-thiazole-3-carboxamide] as the compound, how does the IC50 read?
The IC50 was 0.776 µM.

Which IC50 does the source give for CC(C)N1C[C@H](C)[C@H](NC(=O)c2cc(C3CC3)ns2)C1 (racemic) [compound 91, (±)-cis-3-cyclopropyl-N-[4-methyl-1-(propan-2-yl)pyrrolidin-3-yl]-1,2-thiazole-5-carboxamide] here?
The IC50 was greater than 50 µM.

How did the IC50 turn out when CC(C)N1C[C@H](C)[C@H](NC(=O)c2cc(C3CC3)ncn2)C1 (racemic) [compound 50, (±)-cis-6-cyclopropyl-N-[4-methyl-1-(propan-2-yl)pyrrolidin-3-yl]pyrimidine-4-carboxamide] was run?
The IC50 was 16.7 µM.

With “(±)-cis-N-(1-((2-aminoethyl)sulfonyl)-4-methylpyrrolidin-3-yl)-5-cyclopmpylpyridazine-3-carboxamide [compound 113]” as the compound, how does the IC50 read?
Its IC50 is greater than 50 µM.

With CC(C)c1coc(C(=O)N[C@@H]2CN(C(C)C)C[C@@H]2C)n1 (racemic) [compound 102, (±)-cis-N-[4-methyl-1-(propan-2-yl)pyrrolidin-3-yl]-4-(propan-2-yl)-1,3-oxazole-2-carboxamide] as the compound, how does the IC50 read?
Its IC50 is greater than 50 µM.

With C[C@@H]1CN(Cc2ccc(OCc3ccccc3)cc2)C[C@H]1NC(=O)c1cn(C2CC2)nn1 (racemic) [compound 97, (±)-trans-N-(1-{[4-(benzyloxy)phenyl]methyl}-4-methylpyrrolidin-3-yl)-1-cyclopropyl-1H-1,2,3-triazole-4-carboxamide] as the compound, how does the IC50 read?
The IC50 was 10.5 µM.

Which IC50 does the source give for CC(C)N1C[C@@H](C)[C@H](NC(=O)c2ccc(N3CCCC3)cc2)C1 (racemic) [compound 33, (±)-trans-N-[4-methyl-1-(propan-2-yl)pyrrolidin-3-yl]-4-(pyrrolidin-1-yl)benzamide] here?
The IC50 was greater than 50 µM.

For CC(C)N1C[C@H](C)[C@H](NC(=O)c2cnc(C3CC3)cn2)C1 (racemic) [compound 51, (±)-cis-5-cyclopropyl-N-[4-methyl-1-(propan-2-yl)pyrrolidin-3-yl]pyrazine-2-carboxamide], which IC50 is on record?
The IC50 was greater than 50 µM.

Which IC50 does the source give for CC(C)N1C[C@H](C)[C@H](NC(=O)c2cc(C3CC3)[nH]n2)C1 (racemic) [compound 61, (±)-cis-5-cyclopropyl-N-[4-methyl-1-(propan-2-yl)pyrrolidin-3-yl]-1H-pyrazole-3-carboxamide] here?
The IC50 was greater than 50 µM.

For C[C@H]1CN(Cc2ccc(OCc3ccccc3)cc2)C[C@@H]1NC(=O)c1cc(C2CC2)cnn1 (racemic) [compound 107, (±)-trans-N-(1-{[4-(benzyloxy)phenyl]methyl}-4-methylpyrrolidin-3-yl)-5-cyclopropylpyridazine-3-carboxamide], which IC50 is on record?
The IC50 was 2.7 µM.

Which IC50 does the source give for CC(C)N1C[C@@H](C)[C@H](NC(=O)c2ccc(C3CC3)nn2)C1 (racemic) [compound 108, (±)-trans-6-cyclopropyl-N-[4-methyl-1-(propan-2-yl)pyrrolidin-3-yl]pyridazine-3-carboxamide] here?
The IC50 was greater than 50 µM.

CC(C)N1C[C@H](C)[C@H](NC(=O)c2n[nH]c(C3CC3)n2)C1 (racemic) [compound 84, (±)-cis-5-cyclopropyl-N-[4-methyl-1-(propan-2-yl)pyrrolidin-3-yl]-1H-1,2,4-triazole-3-carboxamide] was tested. Which IC50 did it give?
Its IC50 is 36.8 µM.

Same assay, conditions: Table 4; average of n = 1 to n = 50; read-out: SMYD2 Biochem IC50

How did the IC50 turn out when C[C@H]1CN(S(=O)(=O)CCCN)C[C@H]1NC(=O)c1cc(C2CC2)cnn1 (racemic) [compound 126, rac-N-((3R,4R)-1-((3-aminopropyl)sulfonyl)-4-methylpyrrolidin-3-yl)-5-cyclopropylpyridazine-3-carboxamide] was run?
Its IC50 is greater than 50 µM.

How did the IC50 turn out when CC(C)N1CC(NC(=O)c2cc(C3CC3)cnn2)CC1C (stereo not drawn) [compound 125, 5-cyclopropyl-N-(1-isopropyl-5-methylpyrrolidin-3-yl)pyridazine-3-carboxamide] was run?
The IC50 was 11.5 µM.
